According to paper PMC6208908, “Field template-based design and biological evaluation of new sphingosine kinase 1 inhibitors” (Breast Cancer Research and Treatment, 2018):
Marks after values point to notes of the source that are not given here.

Columns and labels:
[1] = system: 4T1 breast cancer allografts; experiment: 4T1 breast cancer allograft, tumour volume; assay type: in vivo, BALB/c nude mice; conditions: 5 mg/kg each drug i.p. twice a week for 2 weeks; control 468 mm^3
Protocol: Breast cancer allografts were established in 6–8-week-old BALB/c nude mice by injection of 10^6 4T1 cells into their mammary pad. Two weeks after implantation, mice were randomised into treatment groups (n = 6/group) and treated twice a week for 2 weeks with intraperitoneal injections of dimethyl sulfoxide (DMSO), 5 mg/kg DTX, 5 mg/kg SK-F, 5 mg/kg DTX + 5 mg/kg SK-F. One day after the last treatment, all mice were euthanized and blood was collected. Tumour long and short radii were measured using calipers and tumour volume (v) was calculated using the formula v = 4/3 πab^2 (a – long radius, b – short radius). Mice and individual organs were weighed and primary tumours were then processed for analysis of SK1 activity as described above. Full blood count and liver function test analysis was done in the Hammersmith hospital biochemical lab. […]
(§1) Fig. 5 Effect of compound SK-F on breast tumour growth and SK1 activity. […] Two weeks after implantation, mice were randomised into treatment groups (n = 6/group) and treated twice a week for 2 weeks with intraperitoneal injections of: DMSO, 5 mg/kg DTX, 5 mg/kg SK-F, 5 mg/kg DTX + 5 mg/kg SK-F. a Tumour volume in the different treatment groups of 4T1 breast cancer implanted in mouse mammary fat pad. b SK1 activity in tumours was measured using radiolabelling. […]

tumour SK1 = target: T1, tumour SK1 (Mus musculus, UniProt Q8CI15); experiment: SK1 activity in 4T1 allograft tumours; assay type: in vivo, BALB/c nude mice; conditions: 5 mg/kg each drug i.p. twice a week for 2 weeks
T1 construct: primary tumours were then processed for analysis of SK1 activity as described above; from tissue; host or cells: 4T1 breast tumour allografts from BALB/c nude mice
Protocol: (§2) Breast cancer allografts were established in 6–8-week-old BALB/c nude mice by injection of 10^6 4T1 cells into their mammary pad. Two weeks after implantation, mice were randomised into treatment groups (n = 6/group) and treated twice a week for 2 weeks with intraperitoneal injections of dimethyl sulfoxide (DMSO), 5 mg/kg DTX, 5 mg/kg SK-F, 5 mg/kg DTX + 5 mg/kg SK-F. One day after the last treatment, all mice were euthanized and blood was collected. Tumour long and short radii were measured using calipers and tumour volume (v) was calculated using the formula v = 4/3 πab^2 (a – long radius, b – short radius). Mice and individual organs were weighed and primary tumours were then processed for analysis of SK1 activity as described above. Full blood count and liver function test analysis was done in the Hammersmith hospital biochemical lab.
as §1

[2] = Whole-body toxicity: body and organ weights, full blood count; assay type: in vivo, BALB/c nude mice; conditions: 5 mg/kg each drug i.p. twice a week for 2 weeks, 4T1 tumour-bearing mice
Protocol: as §2
Tumour-bearing mice were divided into four groups (n = 6) and injected with: DMSO, 5 mg/kg DTX, 5 mg/kg SK-F, 5 mg/kg DTX + 5 mg/kg SK-F. Two weeks after the tumour cells inoculation, we began intraperitoneal injections of drug preparations and continued these twice a week for two weeks. Based on our previous studies, we have chosen relatively smaller doses of SK-F and DTX in order to investigate their combined effect and potential chemosensitisation of breast tumours to taxane therapies. In the control group, tumours grew progressively and rapidly (Fig. 5a). […] Five mg/kg DTX has induced a significant reduction in tumour volume to 281 mm^3. The biggest reduction in tumour volume to 159 mm^3 was observed when DTX was combined with SK-F (Fig. 5a). […] We have further investigated the effects of the used treatments on mouse whole-body toxicity. DTX has reduced body and liver weight, while SK-F had no significant effect (Table 1). DTX has induced significant anaemia and leukopenia, while the effects of SK-F were very moderate. In all cases, the effects of combined therapy were similar to DTX alone (Table 1). Liver function test was performed as a surrogate marker for chemotherapy-induced liver damage (Fig. 6). […] The combination therapy had similar toxicity profile to DTX alone, while exerting higher antitumour efficacy (Fig. 5a).

[3] = Liver function tests in treated mice; assay type: in vivo, BALB/c nude mice; conditions: 5 mg/kg i.p. twice a week for 2 weeks
Protocol: as §2
Fig. 6 Liver function tests of mice treated with SK-F and docetaxel (DTX). Breast cancer allografts were established in BALB/c nude mice by injection of 4T1 cells into their mammary pad. Two weeks after implantation, mice were randomised into treatment groups (n = 6/group) and treated twice a week for two weeks with intraperitoneal injections of: DMSO, 5 mg/kg DTX, 5 mg/kg SK-F, 5 mg/kg DTX + 5 mg/kg SK-F. a Alanine transaminases (ALT). b Bilirubin. c Aspartate transaminase (AST). d Albumin. e Alkaline phosphatase (ALP). f Total protein. Columns, mean of n = 6 animals normalised to control; bars, SEM. (*p < 0.05; **p < 0.01)

recombinant SK1 = recombinant SK1 (Homo sapiens, UniProt Q9NYA1); experiment: SK1 activity assay, cell-free (recombinant SK1 extract, radiolabelling); assay type: biochemical; conditions: 1 µM compound, recombinant SK1 extract in excess, 1 µM ATP, 1 µM sphingosine, 1 h
Protocol: (§3) SK assay was performed using radiolabeling as previously described, in conditions favouring SK1 or SK2 activity as required.
The synthesised compounds were then screened for SK1 inhibition. Compounds SK-A to SK-F and SKI-II (commercial inhibitor of SK used as positive control with reported IC50 0.5 µM [14]) at 1 µM were incubated in the presence of recombinant SK1 extract (in excess), 1 µM of ATP, and exogenous 1 µM sphingosine for 1 h followed by measurement of SK1 activity.
(§4) Fig. 2 Inhibition of sphingosine kinase 1 in cell-free extract and in vitro. a 1 µM of compounds SK-A to SK-F and SKI-II (commercial inhibitor of SK used as a positive control) were incubated in the presence of recombinant SK1 extract (in excess), 1 µM of ATP, and 1 µM exogenous sphingosine for 1 h. b MDA-MB-231 cells were incubated with 1 µM of compounds SK-A to SK-F and SKI-II for 6 h. SK1 activity was measured as described in materials and methods. Columns, means of three independent experiments normalised to vehicle; bars, SEM. (ns, non-significant; *p < 0.05; **p < 0.01)
SK1 activity was determined in the presence of triton X-100 and SK2 activity was measured in the presence of high salt concentrations, conditions that favour SK1 and SK2, respectively. […] Km for SK1 was 6.97 ± 1.20 µM, Vmax 98 ± 4 µM/min/mg protein and Ki for SK-F 0.46 ± 0.1 µM. […] Some SK inhibitors such as SKI-II were previously shown to induce proteasomal degradation of SK1 [48, 49].

[4] = target: T2, endogenous SK1 in MDA-MB-231 cells (Homo sapiens, UniProt Q9NYA1); experiment: SK1 activity in lysates of treated MDA-MB-231 cells; assay type: cell-based; conditions: 1 µM, 6 h
T2 construct: We treated MDA-MB-231 cells with 1 µM of compounds SK-A – SK-F and SKI-II as the positive control for 6 h; endogenous in cells; host or cells: MDA-MB-231
Protocol: After incubation, cells were washed with ice-cold phosphate-buffered saline (PBS) and harvested.
as §3, §4
Reportedly, among human tumour cell lines, the breast cancer cell line MDA-MB-231 expresses high levels of SK activity. We treated MDA-MB-231 cells with 1 µM of compounds SK-A – SK-F and SKI-II as the positive control for 6 h and analysed SK1 activity in the cell lysates using SK1 activity assay.

SK1 mRNA = SK1 mRNA expression by qRT-PCR in MDA-MB-231 cells; assay type: cell-based, human; conditions: 1, 2, 5 and 10 µM, 24 h
Protocol: Isolation of total RNA from MDA-MB-231 cells was performed using the RNeasy Mini kit (Qiagen, Valencia, CA, USA) as per manufacturer’s instructions. RNA quantity and purity were measured using a NanoDrop ND-1000 Spectrophotometer (Thermo Fisher Scientific, Loughborough, UK). Reverse transcription was performed using precision nanoScript™ reverse transcription kit (PrimerDesign Ltd, Southampton, UK). qRT-PCR was done as already described. Ct values were exported and analysed using qbase software (Biogazelle NV, Zwijnaarde, Belgium).
Fig. 3 Effect of compounds SK-A to SK-F on SK1 mRNA levels. MDA-MB-231 cells were incubated with 1, 2, 5 and 10 µM of compounds SK-A to SK-F for 24 h. SK1 mRNA expression was measured by qRT-PCR. Columns, means of three independent experiments normalised to control; bars, SEM. (*p < 0.05; **p < 0.01)

SK1 protein = SK1 protein level (Figure S9); assay type: cell-based
MDA-MB-231 cells = experiment: MTT cell viability / proliferation assay; assay type: cell-based, human; conditions: 1, 2, 5 and 10 µM, up to 120 h
Protocol: Cellular viability was measured using the 3-(4,5-dimethylthiazol-2-yl)-2,5-diphenyltetrazolium bromide (MTT; 5 mg/ml) colorimetric assay as already described.
Fig. 4 Effect of compounds SK-A to SK-F on breast cancer cell viability. MDA-MB-231 cells were incubated with 1, 2, 5 and 10 µM of compounds SK-A to SK-F for up to 120 h. Cell proliferation was measured using MTT assay. Columns, means of three independent experiments normalised to control; bars, SEM. (*p < 0.05; **p < 0.01; ^§p < 0.001). IC50 levels for SK-F for 72, 96 and 120 h were 7, 4.5 and 3 µM, respectively

SK = system: SK; parameters: method as in PMID 14522923; conditions: commercial inhibitor of SK, positive control; read-out: reported IC50; cited from earlier work

recombinant SK1, sequence (Q9NYA1 whole entry): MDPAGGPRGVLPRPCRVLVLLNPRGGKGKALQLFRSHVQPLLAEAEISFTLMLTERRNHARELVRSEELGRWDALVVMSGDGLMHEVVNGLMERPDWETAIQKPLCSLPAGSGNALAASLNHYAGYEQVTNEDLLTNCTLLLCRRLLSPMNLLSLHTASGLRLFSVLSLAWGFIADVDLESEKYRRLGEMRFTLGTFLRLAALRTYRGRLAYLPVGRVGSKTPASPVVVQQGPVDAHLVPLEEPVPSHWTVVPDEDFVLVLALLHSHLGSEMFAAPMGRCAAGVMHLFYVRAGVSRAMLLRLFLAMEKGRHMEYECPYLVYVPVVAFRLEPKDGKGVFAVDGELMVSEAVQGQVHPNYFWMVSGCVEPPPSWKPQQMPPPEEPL
T2 sequence (Q9NYA1 whole entry): as above
T1 sequence (Q8CI15 whole entry): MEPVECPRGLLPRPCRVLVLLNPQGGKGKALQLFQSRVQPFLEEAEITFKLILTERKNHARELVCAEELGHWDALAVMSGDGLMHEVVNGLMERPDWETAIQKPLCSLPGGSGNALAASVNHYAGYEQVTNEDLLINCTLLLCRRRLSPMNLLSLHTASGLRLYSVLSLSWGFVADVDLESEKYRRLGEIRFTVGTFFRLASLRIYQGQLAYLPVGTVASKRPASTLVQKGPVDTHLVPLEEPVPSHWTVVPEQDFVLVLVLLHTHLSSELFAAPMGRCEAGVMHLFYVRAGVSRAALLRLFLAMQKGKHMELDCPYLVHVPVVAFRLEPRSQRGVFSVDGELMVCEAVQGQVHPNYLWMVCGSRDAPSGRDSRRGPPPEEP

## CC(=O)O[C@@]12CO[C@@H]1C[C@H](O)[C@@]1(C)C(=O)[C@H](O)C3=C(C)[C@@H](OC(=O)[C@H](O)[C@@H](NC(=O)OC(C)(C)C)c4ccccc4)C[C@@](O)([C@@H](OC(=O)c4ccccc4)[C@H]21)C3(C)C [DTX, docetaxel, reference compound]
[1]
  tumour volume at the end of the study: 281 mm^3
Tumour SK1
  tumour SK1 activity: no effect
[2]
  Hb: 65 ± 7 % of control ± SEM
  WCC: 54 ± 4 % of control ± SEM
  Weight of Body: 86 ± 7 % of control ± SEM
  Weight of Kidney: 97 ± 5.9^a % of control ± SEM
  Weight of Liver: 85.3 ± 11.4^a % of control ± SEM
  Weight of Lungs: 99.4 ± 4.a % of control ± SEM
  Weight of Spleen: 91.3 ± 15.4^a % of control ± SEM
[3]
  alanine transaminases (ALT): significant increases
  alkaline phosphatase (ALP): milder increase
  aspartate transaminase (AST): significant increases

## CCCCCCCCc1ccc(NC(=O)C2CCNCC2)cc1 [SK-C]
Recombinant SK1
  inhibition of SK1 activity in cell-free settings: ineffective
[4]
  SK1 activity in cells versus vehicle: significantly decreased
SK1 mRNA
  effect on SK1 mRNA expression: reduction in SK1 mRNA
SK1 protein
  decrease in SK1 protein: 75%
MDA-MB-231 cells
  effect on MDA-MB-231 cancer cell proliferation: highest effect

## CCCCCCCCc1ccc(NC(=O)c2cccc(Cl)c2)cc1 [SK-E]
Recombinant SK1
  inhibition of SK1 activity in cell-free settings: statistically significant inhibition
[4]
  SK1 activity in cells versus vehicle: significantly decreased

## Oc1ccc(Nc2nc(-c3ccc(Cl)cc3)cs2)cc1 [SKI-II, reference compound]
SK1 mRNA
  effect on SK1 mRNA expression: minimal effect
SK1 protein
  effect on SK1 protein: significant decrease
SK
  IC50: 500 nM
